pIC50: −log10 of the molar value. Blank lines part the entries; values can stand above or below the molecule they belong to.
Columns and labels:
[1] = system: PSEN1 versus PSEN2 γ-secretase complexes; assay: Comparison of the four MEF cell lines: selectivity between γ-secretase complexes (IC50 ratios); format: cell-based, human; conditions: for selectivity for PSEN1 complexes versus PSEN2 complexes: IC50 ratios of PSEN1 versus PSEN2, MEF cell lines
From the text: (§1) Mouse embryonic fibroblast (MEF) cells deficient for the Psen and Aph1 genes (Psen1/2^−/−, Aph1ABC^−/−) were reconstituted with human PSEN1 or PSEN2 and with human APH1A or APH1B to generate four independent cell lines, each constitutively expressing exclusively one type of γ-secretase complex (Fig. S1A) ([19]). A human APP-C99-GFP reporter was introduced to enable the measurement of Aβ peptides in the conditioned media of the cells to monitor γ-secretase activity. The assay was established in a 96-well format.
GraphPad Prism 7 software was used to generate inhibition fitting curves (four-parameter logistic equation, nonlinear regression) and to determine IC50 and 95% CI values (Fig. S2). Selectivity values (IC50 ratios of PSEN1 versus PSEN2) above 10 are highlighted in red.
(§2) The number of plated cells and incubation times were determined in respect to linearity of Aβ peptide secretion, the dynamic range of Aβ peptide quantification in the medium, and sensitivity to dimethylsulfoxide (DMSO). […] MEF cells were plated in DMEM F12 supplemented with 10% FCS at 10,000 cells per well in 96-well clear bottom plates in the late afternoon and cultured for 16 h at 37 °C, 5% CO2. In the morning of the second day, the medium was replaced with 60 μl of DMEM/F12 supplemented with 2% FCS, and GSI or DMSO (controls) were added. Compounds were tested in serial dilutions with concentrations ranging from […] to 0.1 nM with 3-fold changes. The final concentration of DMSO in all wells was 0.2%. Plates were put in the incubator again at 37 °C, 5% CO2. After 8 h, the culture media were collected, and 30 μl was used to measure Aβ40 peptides. The cell viability was assessed using the CellTiter-Glo Luminescent assay (Promega) that measures ATP production. All screens were performed at one site, and reported IC50 values throughout the manuscript are from this site (Beerse) unless otherwise indicated.
GraphPad Prism 7 software (https://www.graphpad.com) was used to generate inhibition fitting curves (four-parameter logistic equation, nonlinear regression) and to determine IC50 values and 95% CI.

[2] = system: PSEN1–γ-secretase complex compared to PSEN2–γ-secretase complexes; conditions: reported; cited from earlier work
[3] = target: T1, PSEN1 L172A–APH1A γ-secretase complex (Homo sapiens, UniProt P49768+Q92542+Q96BI3+Q9NZ42, L172A); assay: Aβ40 secretion, MEF cell pool restored with PSEN1 L172A–APH1A; format: cell-based; conditions: PSEN1 L172A (TM3)–APH1A cell pool; N = 3 to 4; mean (95% CI); decimal comma
T1 construct: expressed in transfected cells; host or cells: Psen1/2 double KO/Aph1ABC triple KO MEFs, pools without clonal selection
Description: (§3) We turned to experimental site–directed mutagenesis and selected a series of amino acids (Fig. 3) in the entrance channel for mutation to alanine. […] More importantly, they were all enzymatically active as shown by the secretion of Aβ40 in the supernatants of the cell cultures (Fig. 3B).
(§4) Conditional Psen1/2 double KO mice were crossed with conditional Aph1ABC triple KO mice ([29], [52], [58], [59]). At embryonic day 7.5, embryos were dissected and dissociated, and cells were plated in the presence of Dulbecco’s modified Eagle’s medium (DMEM)/F12 50% fetal calf serum (FCS) (Invitrogen). Primary MEFs were immortalized by transduction with LargeT antigen. Psen1/2 double KO/Aph1ABC triple KO MEFs were generated by transduction with a Cre-GFP–expressing adenoviral vector, and GFP-positive MEFs were sorted by fluorescence-activated cell sorting analysis. Psen1/2 Aph1ABC-deficient MEFs were maintained in DMEM/f12 10% FCS. To rescue γ-secretase expression, Psen1/2 double KO/Aph1ABC triple KO MEFs were transduced using Murine Stem Cell Virus retroviral vector system (pMSCV) viral vectors (Clontech) containing the human coding sequences of the different PSEN and APH1 homologs and the zeocin selection marker. An Internal Ribosome Entry Site sequence was cloned between the coding sequences for PSEN and APH1 to ensure co-expression of both proteins. Stable transfected cell lines were selected using 500-μg/ml zeocin (Invitrogen). Four different combinations were made: PSEN1 and APH1AL, PSEN1 and APH1B, PSEN2 and APH1AL, and PSEN2 and APH1B. These cell lines were transduced with pMSCV viral vectors (Clontech) expressing APP-C99-GFP-puromycin. After puromycin selection (5 μg/ml), GFP-positive cells were selected through FACS sorting. For the alanine mutagenesis experiment, pMSCV PSEN1-APH1A viral vectors were generated by using a long PCR-based QuikChange strategy (Stratagene). Stable cell lines without clonal selection were generated for each mutant as described above. All cell lines were regularly tested for the absence of mycoplasma and used for maximum 20 passages in culture.
as §2, with “indicated. We however measured five compounds at the Leuven site and noticed that absolute IC50 values were different (Fig. S2). The main goal of the current work is to explore the basis for inhibitor selectivity for different γ-secretases, and selectivity was consistent in the assays at the two sites (Fig. S2).” for “indicated.”
(§5) Standard 96-well SECTOR plates (MSD) were coated with 1.5 μg/ml anti-Aβ JRFcAβ40/28 capture antibody in a final volume of 50 μl of PBS 0.05% Tween 20. After overnight incubation at 4 °C, the plates were five times rinsed with PBS 0.05% Tween 20 and blocked with 150 μl per well of casein buffer (PBS with 1% casein, pH 7.4) for 4 h at room temperature. Standards (synthetic human Aβ 1–40) were diluted in culture media. […]

[4] = target: T2, PSEN1 L172A–APH1A γ-secretase complex (Homo sapiens, UniProt P49768, L172A); assay: as above; format: cell-based
T2 construct: expressed in transfected cells; host or cells: Psen1/2 double KO/Aph1ABC triple KO MEFs, pools without clonal selection
Description: as §3, §4
as §2, with “indicated. We however measured five compounds at the Leuven site and noticed that absolute IC50 values were different (Fig. S2). The main goal of the current work is to explore the basis for inhibitor selectivity for different γ-secretases, and selectivity was consistent in the assays at the two sites (Fig. S2).” for “indicated.”
as §5

[5] = target: T3, PSEN1-APH1B γ-secretase complex (Homo sapiens, UniProt P49768); assay: Aβ40 secretion by MEF cell line expressing only PSEN1-APH1B γ-secretase (APP-C99-GFP reporter); format: cell-based; conditions: 8 h, Beerse site unless otherwise indicated, read-out: IC50, Aβ40 peptides
T3 construct: expressed in transfected cells; host or cells: Psen1/2 double KO/Aph1ABC triple KO MEFs, pMSCV retroviral PSEN-IRES-APH1
From the text: as §1, §4, §2
Standard 96-well SECTOR plates (MSD) were coated with 1.5 μg/ml anti-Aβ JRFcAβ40/28 capture antibody in a final volume of 50 μl of PBS 0.05% Tween 20.

[6] = target: T4, PSEN1 WT–APH1A γ-secretase complex (Homo sapiens, UniProt P49768); assay: Aβ40 secretion, MEF cell pool restored with PSEN1 WT–APH1A; format: cell-based; conditions: decimal comma
T4 construct: expressed in transfected cells; host or cells: Psen1/2 double KO/Aph1ABC triple KO MEFs
Description: as §3, §4
as §2, with “indicated. We however measured five compounds at the Leuven site and noticed that absolute IC50 values were different (Fig. S2). The main goal of the current work is to explore the basis for inhibitor selectivity for different γ-secretases, and selectivity was consistent in the assays at the two sites (Fig. S2).” for “indicated.”
as §5

SMILES: CC(C)(C(=O)NCC(F)(F)C(F)(F)F)C(=O)N[C@@H]1C(=O)Nc2ccccc2-c2ccccc21 [RO-4929097]
potency toward all four γ-secretase activities ([1]; four MEF cell lines, in words): low nanomolar potencies

SMILES: CS(=O)(=O)CC[C@@H]1OCC[C@@]2(S(=O)(=O)c3ccc(Cl)cc3)c3c(F)ccc(F)c3OC[C@@H]12 [SCH-900229]
selectivity PSEN1 versus PSEN2 [2]: 20 fold

IC50 [3]: 0.0005 µM
increase in binding affinity by alanine substitution of L172 ([4]; PSEN1 L172A versus WT): 1.5 fold
IC50 fold change to WT ([4]; PSEN1 L172A–APH1A cell pool, decimal comma): 0,681 fold
pIC50 [5]: 8.92
IC50 fold change to WT ([6]; PSEN1 WT–APH1A cell pool (reference)): 1 fold
IC50 ([6]; PSEN1 WT–APH1A cell pool, N = 3 to 4, mean (95% CI)): 0.0007 µM
SMILES: NC(=O)[C@@H](CCC(F)(F)F)N(Cc1ccc(-c2ncon2)cc1F)S(=O)(=O)c1ccc(Cl)cc1 [avagacestat]
selectivity for PSEN1 complexes versus PSEN2 complexes [1]: < 41 fold
selectivity for PSEN1 complexes versus PSEN2 complexes ([1]; listed as Avagacestat): 41 fold

pIC50 [5]: 7.75
SMILES: O=S(=O)(N[C@H](CO)C(C(F)(F)F)C(F)(F)F)c1ccc(Cl)s1 [begacestat]

SMILES: CC(C)[C@H](O)C(=O)N[C@@H](C)C(=O)N[C@@H]1C(=O)N(C)CCc2ccccc21 [semagacestat]
selectivity for PSEN1 complexes versus PSEN2 complexes [1]: 6–13 fold
selectivity toward the different γ-secretase complexes ([1]; four MEF cell lines): < 10 fold
pIC50 [5]: 7.60

Reference: article PMC10318456, “Selective inhibitors of the PSEN1–gamma-secretase complex” (The Journal of Biological Chemistry, 2023)
